Test results: patent US20170119630A1, “BIPHASIC COMPOSITION FOR PERFUME AND PERSONAL CARE APPLICATIONS AND USES THEREOF” (Coty Inc., priority 2014, published 2017)

How the values were obtained:
[1] = colorant; cited from earlier work
[2] = Single fragrance migration study in biphasic compositions, GC/MS analysis; assay type: physicochemical; conditions: for Result in % based on GC/MS analysis, Regular EDT aromatics %: Regular EDT with Fragrance oil Giddy 11598/00; for migration between phases when the amount of water is increased: water ~7.4 wt % to ~27.25 wt %, FIG. 1, GC/MS
From the text: FIG. 1 has been obtained using GC/MS analytical tool. Depending primary on the log P of fragrances and/or secondary of the chemical families/functions of those fragrances, modification of the polarity will have the effect of pushing the fragrance in one preferred phase of the biphasic composition.
To determine the distribution of first fragrance and second fragrance in the biphasic composition three formulations (regular EDT, biphasic composition with low amount of water in the water-alcohol phase, biphasic composition with high amount of water in the water-alcohol phase) were tested and compared using GC/MS analysis and Expert evaluator.

[3] = Bi phase formula high amount of water in the bottom phase (total water ~27.24%)
[4] = Bi phase formula low amount of water in the bottom phase (total water ~7.4%)

SMILES | solubility (oil-soluble / water-soluble) [1] | Result in % based on GC/MS analysis, Lower phase aromatics % [2, 3] | Result in % based on GC/MS analysis, Upper phase aromatics % [2, 3] | Result in % based on GC/MS analysis, Lower phase aromatics % [2, 4] | Result in % based on GC/MS analysis, Upper phase aromatics % [2, 4] | Result in % based on GC/MS analysis, Regular EDT aromatics % [2] | migration between phases when the amount of water is increased [2]
O=C1c2ccccc2C(=O)C1c1ccc2ccccc2n1 [D&C Yellow No. 11] | oil-soluble |  |  |  |  |  | 
O=C(O)c1nn(-c2ccc(S(=O)(=O)O)cc2)c(O)c1N=Nc1ccc(S(=O)(=O)O)cc1 [FD&C Yellow No. 5] | water-soluble |  |  |  |  |  | 
CC(=O)OC1CCCCC1C(C)(C)C (single isomer, unassigned) [agrumex major isomer, agrumex] |  | 0.16% | 0.47% | 0.40% | 0.45% | 0.41% | 
CC(C=O)Cc1ccc(C(C)(C)C)cc1 (stereo not shown) [lilial] |  | 2.43% | 4.18% | 4.90% | 2.70% | 3.92% | 
CC(CC=O)CCCC(C)(C)O (stereo not shown) [hydroxycitronelial] |  | 4.13% | 0.12% | 0.88% | 0.06% | 0.53% | 
C=CC(C)(CCC=C(C)C)OC(C)=O (stereo not shown) [linalyl acetate] |  | 1.63% | 3.89% | 3.52% | 3.38% | 3.37% | 
CCCCCCC(C=O)=Cc1ccccc1 [hexylcinnamic aid, hexylcinnamic aldehyde] |  | 0.46% | 1.67% | 1.65% | 1.43% | 1.54% | migrating in the oily phase
C=CC(C)(O)CCC=C(C)CC (mixture of isomers) [ethyl linalol] |  | 28.40% | 0.83% | 6.86% | 1.11% | 4.39% | stays in the hydro-alcoholic phase
CCCCCCCCCCCCCC(=O)OC(C)C [Isopropyl Myristate IPM, Isopropyl Myristate] |  | 0.00% | 13.93% | 4.96% | 23.40% | 13.34% | migrate following the same rules in the oil phase
CC1COCc2cc3c(cc21)C(C)(C)C(C)C3(C)C (stereo not drawn) [galaxolide (main peak), galaxolide] |  | 1.64% | 22.92% | 15.47% | 26.53% | 20.25% | migrating in the oily phase
CCCCCC1C(=O)CCC1CC(=O)OC (stereo not drawn) [hedione trans, hedione] |  | 26.10% | 11.94% | 18.40% | 6.64% | 13.28% | 
CC(C)CC1CC(C)(O)CCO1 (stereo not shown) [florosa] |  | 5.86% | 3.93% | 5.12% | 1.86% | 3.82% | 
CC(C=O)Cc1ccc2c(c1)OCO2 (stereo not shown) [helional] |  | 4.10% | 0.91% | 2.03% | 0.40% | 1.32% | 
